Data on 19 compounds can be found in patent US4153688A, “Trifluoromethylated oligopeptides” (Delalande S.A., priority 1977, dated 1979).

Where a name gives a salt, the structure may show the parent alone. Read-outs that look alike come from different tables or passages of the source. Square brackets hold non-standard residues; d marks the D form. Peptide text beside a SMILES is read from it. * marks the point of attachment. pNA = O=[N+]([O-])c1ccc(N*)cc1; 4Abz = Nc1ccc(C(=O)O)cc1; Tfa = O=C(C(F)(F)F)*; NHPh = c1ccc(N*)cc1

For series [1], the target named is T1, porcine pancreatic elastase (Sus scrofa, UniProt P00772). Description: Inhibition constant KI (Dixon method) on pancreatic elastase, hydrolysis of succinyl-tri-L-alanine-paranitroanilide. It counts as biochemical. The conditions noted are these: 25° C., TRIS 0.2 M buffer, pH 8; absence of any organic solvent; read-out: K T^ (a) pancreatic. The text has this: (§1) This latter was purified according to the Travis method (Baugh, R. J. and Travis, J. (1976), Biochemistry, 15, 4, 836). The method of study used is the conventional method of Dixon (Dixon, M., (1953), Biochemical Journal, 55, 1970) for measuring the inhibition constants KI of the compounds of the invention with regard to the hydrolysis reactions of the succinyl-tri-L-alanine-paranitroanilide catalysed by the two above elastases (Bieth J., Spiess B. and Wermuth C. G. (1974) Biochemical Medicine, 11, 350). In certain cases (leucocytal elastase) the inhibitory power of the compounds studied was measured by means of the I50 concentration of these compounds inducing 50% inhibition of the hydrolysis of the succinyl-tri-alanine-paranitroanilide at a 10^-3 M concentration catalysed by the enzyme. […] All the measurements were made at 25° C. in a 0.2 Molar buffer solution of tri-hydroxymethyl-aminomethane at pH 8.
T1 sequence (P00772 27-266): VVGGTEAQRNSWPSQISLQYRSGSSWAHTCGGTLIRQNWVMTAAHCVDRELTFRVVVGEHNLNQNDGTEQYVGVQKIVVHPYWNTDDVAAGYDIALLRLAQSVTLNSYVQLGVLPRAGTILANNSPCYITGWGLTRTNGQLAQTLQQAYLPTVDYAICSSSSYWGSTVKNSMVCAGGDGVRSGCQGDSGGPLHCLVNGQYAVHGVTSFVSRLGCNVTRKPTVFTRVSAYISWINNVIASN
(§2) Table E below lists the results obtained for the compounds of formula (I) as well as the reference compounds (A), acetyl-L-prolyl-L-alanyl-L-prolyl-L-alaninal, for the pancreatic elastase (Thompson, R. C., Biochemistry (1973), 17, 1, 47) and (B), oleic acid, for the leucocytal elastase (Ashe, B. M. and Zimmerman, M. (1977), Biochem. Biophys. Res. Comm., 75, 194).

For series [2], the target named is T2, leucocytal elastase (Homo sapiens, UniProt P08246).
T2 construct: This latter was purified according to the Travis method; from tissue
T2 sequence (P08246 30-267): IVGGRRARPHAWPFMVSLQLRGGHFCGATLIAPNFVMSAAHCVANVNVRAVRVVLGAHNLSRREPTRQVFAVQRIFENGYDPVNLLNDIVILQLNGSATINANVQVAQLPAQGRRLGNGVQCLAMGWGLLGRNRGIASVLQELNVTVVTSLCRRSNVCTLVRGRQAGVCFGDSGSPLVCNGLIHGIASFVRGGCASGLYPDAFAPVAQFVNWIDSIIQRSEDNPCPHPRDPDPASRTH
Description: I50 on leucocytal elastase, hydrolysis of succinyl-tri-alanine-paranitroanilide at 10^-3 M. As to conditions: 25° C., TRIS 0.2 M buffer, pH 8; substrate 10^-3 M; in the presence of 50 % dimethylformamide (footnote); read-out: T 50^ (b) leucocytal. In kind it is biochemical.
Source text: as §1

In series [3] the target is T1, porcine pancreatic elastase. The conditions noted are these: reference compound, Thompson, Biochemistry (1973); read-out: K T^ (a) pancreatic; cited from earlier work.
For series [4], the target named is T2, leucocytal elastase. The conditions noted are these: reference compound, Ashe and Zimmerman (1977); read-out: K T^ (a) leucocytal; cited from earlier work.
The subject of the next series is mice. Description: Intravenous toxicity on mice. In kind it is in vivo. The conditions noted are these: intravenously, 20, 40 and 80 mg/kg, solution in physiological serum containing 10% DMF. Here is the method: Furthermore, the toxicity of the compounds of the invention were studied intravenously on mice. More exactly, these compounds were tested in the form of a solution in physiological serum containing 10% DMF.
It is to be noted that it was not possible to use doses higher than those indicated above, because of the solubility limit of compound 3.

For series [5], the target named is T2, leucocytal elastase. The experiment in a line: Inhibition constant KI (Dixon method) on leucocytal elastase, hydrolysis of succinyl-tri-L-alanine-paranitroanilide. It counts as biochemical. The conditions noted are these: 25° C., TRIS 0.2 M buffer, pH 8; absence of any organic solvent; read-out: K T^ (a) leucocytal.
Source text: as §1, §2

With `CC(NC(=O)C(F)(F)F)C(=O)NC(C(=O)Nc1ccccc1)C(F)(F)F` (mixture of isomers) [compound 17], the Ki in series [1] worked out at 270 nM. For the same compound, the IC50 at leucocytal elastase [2] came out at 400000 nM.
For `CC(=O)N1CCC[C@H]1C(=O)N[C@@H](C)C(=O)N1CCC[C@H]1C(=O)N[C@@H](C)C=O` [A, acetyl-L-prolyl-L-alanyl-L-prolyl-L-alaninal] (Ac-PAPA-aldehyde), in series [3], the Ki was 800 nM.
With `CCCCCCCC/C=C\CCCCCCCC(=O)O` [B, oleic acid], at leucocytal elastase [4], the Ki was 9000 nM.
As to `C[C@H](NC(=O)[C@H](C)NC(=O)C(F)(F)F)C(=O)Nc1ccc([N+](=O)[O-])cc1` [Code number 3, N-trifluoroacetyl-L-alanyl-L-alanyl-p-nitroanilide] (Tfa-Ala-Ala-pNA), in series [1], the Ki was 120 nM. At leucocytal elastase [2], the IC50 turned out to be 78000 nM. For the same compound, the mortality result in the series on mice is recorded as “no case of mortality was observed”.
As to `C[C@H](NC(=O)[C@H](C)NC(=O)C(F)(F)F)C(=O)Nc1ccccc1` [compound 1] (Tfa-Ala-Ala-NHPh), the Ki in series [1] stood at 250 nM. Further, the IC50 at leucocytal elastase [2] came out at 250000 nM.
For `C[C@H](NC(=O)[C@H](C)NC(=O)C(F)(F)F)C(=O)Nc1ccc(Cl)cc1` [compound 2] the same measures were 110 nM and 100000 nM.
With `C[C@H](NC(=O)[C@H](C)NC(=O)C(F)(F)F)C(=O)Nc1cccc([N+](=O)[O-])c1` [compound 4], the Ki in series [1] is 380 nM. For the same compound, the IC50 on leucocytal elastase [2] was 150000 nM.
As for `C[C@H](NC(=O)[C@H](C)NC(=O)C(F)(F)F)C(=O)Nc1ccc(C(F)(F)F)cc1` [compound 5], the Ki in series [1] came out at 90 nM. At leucocytal elastase [2], the IC50 came out at 56000 nM.
In the same order, the values of `C[C@H](NC(=O)[C@H](C)NC(=O)C(F)(F)F)C(=O)Nc1cccc(C(F)(F)F)c1` [compound 6] are 800 nM and 120000 nM.
In the case of `COc1ccc(NC(=O)[C@H](C)NC(=O)[C@H](C)NC(=O)C(F)(F)F)cc1` [compound 7], in series [1], the Ki came to 290 nM. In addition, the IC50 at leucocytal elastase [2] is 30000 nM.
In the same order, the values of `CC(C)c1ccc(NC(=O)[C@H](C)NC(=O)[C@H](C)NC(=O)C(F)(F)F)cc1` [compound 8] are 550 nM and 12000 nM.
Regarding `C[C@H](NC(=O)[C@H](C)NC(=O)C(F)(F)F)C(=O)Nc1ccc(C#N)cc1` [compound 9], the Ki in series [1] is 110 nM. Moreover, the IC50 on leucocytal elastase [2] worked out at 100000 nM.
For the compound `C[C@H](NC(=O)[C@H](C)NC(=O)C(F)(F)F)C(=O)Nc1ccc(C(=O)O)cc1` [compound 10] (Tfa-Ala-Ala-[4Abz]-OH), the Ki in series [1] was found to be 200 nM. Further, the IC50 at leucocytal elastase [2] turned out to be 470000 nM.
As to `C[C@H](NC(=O)[C@H](CCCCN)NC(=O)C(F)(F)F)C(=O)Nc1ccccc1` [compound 11] (Tfa-Lys-Ala-NHPh), the values for the Ki (in series [1]; on leucocytal elastase [5]) were 40 nM and 44000 nM, respectively. In addition, the IC50 at leucocytal elastase [2] worked out at 150000 nM.
With `C[C@H](NC(=O)[C@H](CCCCN)NC(=O)C(F)(F)F)C(=O)Nc1ccc(C(F)(F)F)cc1` [compound 12], the Ki in series [1] is 25 nM; at leucocytal elastase [5] it was 3000 nM. For the same compound, the IC50 at leucocytal elastase [2] was 35000 nM.
As for `Cc1ccc(NC(=O)[C@H](C)NC(=O)[C@H](CCCCN)NC(=O)C(F)(F)F)cc1` [compound 13], the Ki in series [1] stood at 30 nM; on leucocytal elastase [5], 14000 nM. Further, the IC50 at leucocytal elastase [2] worked out at 50000 nM.
With `CC(C)c1ccc(NC(=O)[C@H](C)NC(=O)[C@H](CCCCN)NC(=O)C(F)(F)F)cc1` [compound 14], the values for the Ki (in series [1]; at leucocytal elastase [5]) were 50 nM and 700 nM, respectively. Also, the IC50 on leucocytal elastase [2] worked out at 5700 nM.
Consider `CC(=O)c1ccc(NC(=O)[C@H](C)NC(=O)[C@H](CCCCN)NC(=O)C(F)(F)F)cc1` [compound 16], for which the values for the Ki (in series [1]; at leucocytal elastase [5]) were 32 nM and 2500 nM, respectively. Besides, the IC50 on leucocytal elastase [2] came to 9000 nM.
As for `C[C@H](NC(=O)C(F)(F)F)C(=O)N[C@@H](CCCCN)C(=O)Nc1ccc(C(F)(F)F)cc1` [compound 19], the Ki in series [1] turned out to be 400 nM. Also, the IC50 at leucocytal elastase [2] amounted to 150000 nM.
